Experimental findings from ChEMBL document CHEMBL1909046, “DrugMatrix in vitro pharmacology data” are described below.

Assay [1] addresses T1, 5-hydroxytryptamine receptor 2C (Homo sapiens, UniProt P28335).
T1 sequence (P28335 whole entry): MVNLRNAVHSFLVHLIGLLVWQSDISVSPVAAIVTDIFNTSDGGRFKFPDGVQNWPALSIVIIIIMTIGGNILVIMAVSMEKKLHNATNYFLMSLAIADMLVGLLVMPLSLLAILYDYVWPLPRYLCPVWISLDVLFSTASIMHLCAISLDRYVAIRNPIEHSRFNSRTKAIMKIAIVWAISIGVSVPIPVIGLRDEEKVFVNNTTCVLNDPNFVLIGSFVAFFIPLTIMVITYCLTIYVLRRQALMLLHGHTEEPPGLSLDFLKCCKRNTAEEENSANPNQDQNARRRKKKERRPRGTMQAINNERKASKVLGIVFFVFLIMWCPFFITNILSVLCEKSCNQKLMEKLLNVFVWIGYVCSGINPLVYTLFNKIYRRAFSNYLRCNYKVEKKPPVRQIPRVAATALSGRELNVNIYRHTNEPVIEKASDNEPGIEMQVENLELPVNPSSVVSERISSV
The experiment in a line: DRUGMATRIX: Serotonin (5-Hydroxytryptamine) 5-HT2C radioligand binding (ligand: [3H] Mesulergine). In kind it is cell membranes, CHO-K1, Membrane. As to conditions: cho-k1; Not Active = under 50% inhibition at 10 µM.

For assay [2], the target named is Cytochrome P450 2D6 (Homo sapiens, UniProt P10635). Further: in other assays of this panel Not Active means under 50% inhibition at 10 µM.
Assay [3] has as its target Cytochrome P450 3A4 (Homo sapiens, UniProt P08684). Further: in other assays of this panel Not Active means under 50% inhibition at 10 µM.
Assay [4] has as its target T2, Androgen receptor (Rattus norvegicus, UniProt P15207). Further: in other assays of this panel Not Active means under 50% inhibition at 10 µM.
T2 sequence (P15207 whole entry): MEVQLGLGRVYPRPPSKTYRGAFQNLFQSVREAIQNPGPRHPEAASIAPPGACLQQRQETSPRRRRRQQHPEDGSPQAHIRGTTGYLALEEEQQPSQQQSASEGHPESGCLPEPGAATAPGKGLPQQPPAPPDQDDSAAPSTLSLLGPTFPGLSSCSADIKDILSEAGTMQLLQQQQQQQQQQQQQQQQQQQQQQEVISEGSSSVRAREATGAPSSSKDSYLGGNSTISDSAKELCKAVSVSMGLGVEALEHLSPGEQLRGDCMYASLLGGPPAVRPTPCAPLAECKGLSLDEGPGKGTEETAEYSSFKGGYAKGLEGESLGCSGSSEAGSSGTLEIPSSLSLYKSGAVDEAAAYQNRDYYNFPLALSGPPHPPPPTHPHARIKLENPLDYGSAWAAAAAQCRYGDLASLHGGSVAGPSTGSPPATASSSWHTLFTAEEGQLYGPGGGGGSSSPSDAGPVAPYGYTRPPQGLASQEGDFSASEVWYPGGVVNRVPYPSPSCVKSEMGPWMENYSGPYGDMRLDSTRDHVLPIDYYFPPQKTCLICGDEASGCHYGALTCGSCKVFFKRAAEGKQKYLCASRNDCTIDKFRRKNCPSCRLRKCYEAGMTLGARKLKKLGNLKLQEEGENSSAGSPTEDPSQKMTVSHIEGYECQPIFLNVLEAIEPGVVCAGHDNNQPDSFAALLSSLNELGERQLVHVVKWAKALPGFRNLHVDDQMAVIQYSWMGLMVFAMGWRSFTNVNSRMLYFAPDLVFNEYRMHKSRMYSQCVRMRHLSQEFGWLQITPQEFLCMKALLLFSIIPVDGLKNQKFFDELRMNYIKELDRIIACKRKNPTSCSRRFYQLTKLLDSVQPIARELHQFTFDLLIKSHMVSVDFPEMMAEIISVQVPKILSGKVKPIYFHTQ

Assay [5] deals with T3, Glucocorticoid receptor (Homo sapiens, UniProt P04150).
T3 sequence (P04150 whole entry): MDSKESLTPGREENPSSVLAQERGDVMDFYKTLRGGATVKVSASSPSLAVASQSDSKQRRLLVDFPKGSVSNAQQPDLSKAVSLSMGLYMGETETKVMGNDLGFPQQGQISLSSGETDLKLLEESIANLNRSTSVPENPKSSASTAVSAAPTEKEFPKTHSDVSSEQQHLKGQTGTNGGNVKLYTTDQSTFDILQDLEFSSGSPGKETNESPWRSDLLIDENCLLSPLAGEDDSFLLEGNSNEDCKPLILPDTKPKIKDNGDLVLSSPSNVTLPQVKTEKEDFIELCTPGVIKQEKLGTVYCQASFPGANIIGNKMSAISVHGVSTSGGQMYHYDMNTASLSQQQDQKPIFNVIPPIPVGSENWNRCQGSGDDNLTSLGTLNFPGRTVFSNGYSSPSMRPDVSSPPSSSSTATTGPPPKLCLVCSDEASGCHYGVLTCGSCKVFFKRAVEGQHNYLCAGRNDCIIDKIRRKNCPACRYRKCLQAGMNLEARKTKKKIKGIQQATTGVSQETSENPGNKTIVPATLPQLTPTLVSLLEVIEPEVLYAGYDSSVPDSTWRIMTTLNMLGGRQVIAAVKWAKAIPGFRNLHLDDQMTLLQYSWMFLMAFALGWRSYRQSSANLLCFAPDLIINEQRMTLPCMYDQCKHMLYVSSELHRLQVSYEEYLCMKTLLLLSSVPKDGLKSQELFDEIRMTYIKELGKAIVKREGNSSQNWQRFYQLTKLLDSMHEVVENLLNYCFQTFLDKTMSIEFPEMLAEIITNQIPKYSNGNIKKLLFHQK
Put plainly: biochemical.

Assay [6] concerns the target Voltage-gated inwardly rectifying potassium channel KCNH2 (Homo sapiens, UniProt Q12809). Further: in other assays of this panel Not Active means under 50% inhibition at 10 µM.

SMILES strings stand for the structures.
Wherever Ki is given: in other assays of this panel Not Active means under 50% inhibition at 10 µM.

Sequence of Cytochrome P450 3A4 (P08684 whole entry): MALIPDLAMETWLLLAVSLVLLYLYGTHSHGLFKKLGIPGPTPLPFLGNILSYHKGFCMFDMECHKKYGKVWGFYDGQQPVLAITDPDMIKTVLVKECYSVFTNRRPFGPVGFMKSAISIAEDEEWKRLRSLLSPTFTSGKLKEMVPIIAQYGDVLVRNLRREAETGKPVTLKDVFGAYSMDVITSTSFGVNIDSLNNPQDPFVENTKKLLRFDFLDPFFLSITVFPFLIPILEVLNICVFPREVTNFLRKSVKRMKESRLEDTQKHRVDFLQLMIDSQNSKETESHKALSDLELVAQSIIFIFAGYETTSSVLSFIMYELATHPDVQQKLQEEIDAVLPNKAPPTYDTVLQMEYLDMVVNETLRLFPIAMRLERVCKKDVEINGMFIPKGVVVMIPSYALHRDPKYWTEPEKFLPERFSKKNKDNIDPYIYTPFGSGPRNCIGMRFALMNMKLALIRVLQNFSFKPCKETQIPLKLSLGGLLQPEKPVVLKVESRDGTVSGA
Sequence of Cytochrome P450 2D6 (P10635 whole entry): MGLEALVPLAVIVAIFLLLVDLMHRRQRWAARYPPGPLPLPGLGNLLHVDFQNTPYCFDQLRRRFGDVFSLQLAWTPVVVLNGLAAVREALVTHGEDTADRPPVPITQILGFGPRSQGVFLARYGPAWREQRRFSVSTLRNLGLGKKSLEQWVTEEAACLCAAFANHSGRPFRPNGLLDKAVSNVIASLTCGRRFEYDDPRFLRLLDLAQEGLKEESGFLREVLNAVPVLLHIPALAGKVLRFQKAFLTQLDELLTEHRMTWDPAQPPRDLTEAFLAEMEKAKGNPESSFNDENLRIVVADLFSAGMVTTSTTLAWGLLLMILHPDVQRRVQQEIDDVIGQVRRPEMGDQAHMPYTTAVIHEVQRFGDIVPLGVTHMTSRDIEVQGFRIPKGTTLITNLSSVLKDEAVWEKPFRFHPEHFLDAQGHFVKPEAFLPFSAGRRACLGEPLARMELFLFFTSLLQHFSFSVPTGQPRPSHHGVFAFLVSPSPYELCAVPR
Sequence of Voltage-gated inwardly rectifying potassium channel KCNH2 (Q12809 whole entry): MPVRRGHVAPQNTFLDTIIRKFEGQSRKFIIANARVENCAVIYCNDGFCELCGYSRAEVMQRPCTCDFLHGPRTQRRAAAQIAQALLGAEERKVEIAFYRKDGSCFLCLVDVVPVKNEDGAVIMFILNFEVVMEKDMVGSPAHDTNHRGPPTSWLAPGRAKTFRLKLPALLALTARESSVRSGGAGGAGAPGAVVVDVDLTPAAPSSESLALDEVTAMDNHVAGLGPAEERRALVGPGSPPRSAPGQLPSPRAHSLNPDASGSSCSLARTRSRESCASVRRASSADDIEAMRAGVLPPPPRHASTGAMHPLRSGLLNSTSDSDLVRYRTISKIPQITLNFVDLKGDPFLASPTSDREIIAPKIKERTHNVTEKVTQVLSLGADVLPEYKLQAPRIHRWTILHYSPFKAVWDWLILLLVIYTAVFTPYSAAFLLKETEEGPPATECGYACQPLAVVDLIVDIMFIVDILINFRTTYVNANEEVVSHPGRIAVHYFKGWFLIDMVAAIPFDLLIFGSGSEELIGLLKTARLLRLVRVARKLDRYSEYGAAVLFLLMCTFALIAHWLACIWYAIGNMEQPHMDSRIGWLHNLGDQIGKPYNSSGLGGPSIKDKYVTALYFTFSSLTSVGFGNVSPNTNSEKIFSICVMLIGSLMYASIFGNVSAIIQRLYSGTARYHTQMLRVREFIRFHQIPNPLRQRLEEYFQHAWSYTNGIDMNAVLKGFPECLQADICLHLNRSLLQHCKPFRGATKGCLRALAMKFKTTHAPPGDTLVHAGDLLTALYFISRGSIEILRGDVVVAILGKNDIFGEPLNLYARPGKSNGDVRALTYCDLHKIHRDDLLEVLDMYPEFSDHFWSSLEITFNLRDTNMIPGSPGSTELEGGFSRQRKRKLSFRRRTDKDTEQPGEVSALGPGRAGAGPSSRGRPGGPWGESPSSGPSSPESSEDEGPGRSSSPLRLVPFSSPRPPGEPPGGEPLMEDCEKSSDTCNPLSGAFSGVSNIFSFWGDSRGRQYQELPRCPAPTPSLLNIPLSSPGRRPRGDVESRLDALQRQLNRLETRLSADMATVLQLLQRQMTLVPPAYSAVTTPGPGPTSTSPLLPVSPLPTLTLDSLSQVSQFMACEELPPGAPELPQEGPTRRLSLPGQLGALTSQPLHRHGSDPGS

For the molecule `CC[C@H](C)[C@@H](CO[C@@H](Cc1ccccc1)C(=O)N[C@@H](CCS(C)(=O)=O)C(=O)OC(C)C)NC[C@@H](N)CS`, the IC50 result in assay [1] is “Not Active”; in assay [2], 700 nM; in assay [3], 3000 nM; in assay [4] it was “Not Active”.
As for `CC(=O)O[C@]1(C(C)=O)CC[C@H]2[C@@H]3C[C@H](C)C4=CC(=O)CC[C@]4(C)[C@H]3CC[C@@]21C` [MEDROXYPROGESTERONE ACETATE], the IC50 entry in assay [1] was “Not Active”; in assay [5] it was 19 nM. Further, the Ki in assay [5] worked out at 8.64 nM.
Molecule `Cc1cc2c(s1)Nc1ccccc1N=C2N1CCN(C)CC1` [OLANZAPINE] showed an IC50 in assay [6] of 100000 nM.

By IC50 is commonly meant the concentration that gives 50% inhibition. As a reminder, the Ki is a measure of affinity in units of concentration, obtained from inhibition or displacement.
